# *1 amine or outer side, *2 acyl side, *3 side chain or, on linkers, in order; H or OH if unused. Where a SMILES comes first, the peptide text is derived from it. Side-chain parts run from the residue outwards. [ ]: non-standard residue; d: D form. The star is where a group is joined. C18 diacid = O=C(O)CCCCCCCCCCCCCCCCC(=O)*; C16 diacid = O=C(O)CCCCCCCCCCCCCCC(=O)*; γGlu = O=C(O)[C@H](CCC(=O)[*:2])N[*:1]; pGlu = O=C1CC[C@@H](C(=O)O)N1; AEEA = NCCOCCOCC(=O)O
# Legend:
# Type in all cases: cell-based
# [1] = target: T1, GLP2 receptor (GLP2R) (Homo sapiens, UniProt O95838); assay: cAMP assay - selectivity, antagonism at GLP2 receptor; conditions: Table 3B; COS-7 cells; agonist GLP2
# T1 construct: expressed in transfected cells; host or cells: COS-7 (transient)
# T1 sequence (O95838 1-553): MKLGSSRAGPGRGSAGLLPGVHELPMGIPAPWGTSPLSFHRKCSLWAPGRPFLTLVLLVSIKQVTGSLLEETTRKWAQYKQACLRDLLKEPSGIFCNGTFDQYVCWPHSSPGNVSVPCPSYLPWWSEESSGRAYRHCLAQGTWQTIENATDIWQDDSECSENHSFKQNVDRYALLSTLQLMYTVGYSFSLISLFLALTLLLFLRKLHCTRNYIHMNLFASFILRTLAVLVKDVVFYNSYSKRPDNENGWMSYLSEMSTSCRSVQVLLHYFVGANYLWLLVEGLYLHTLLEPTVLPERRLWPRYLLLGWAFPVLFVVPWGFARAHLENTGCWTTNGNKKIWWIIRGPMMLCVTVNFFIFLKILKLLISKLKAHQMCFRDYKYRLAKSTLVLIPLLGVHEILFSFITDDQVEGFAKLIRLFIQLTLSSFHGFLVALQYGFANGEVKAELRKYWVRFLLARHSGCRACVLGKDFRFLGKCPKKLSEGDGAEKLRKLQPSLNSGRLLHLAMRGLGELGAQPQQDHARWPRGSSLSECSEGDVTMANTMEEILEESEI
# Protocol: (§1) Transient transfected COS-7 cells expressing the either of the GLP1 receptor (GLP1R), GLP2 receptor (GLP2R), glucagon receptor (GcgR) or secretin receptor (SCTR) were seeded in white 96-well plates with a density of 3.5*10^4/well. The day after, the cells were washed twice with Hepes buffered saline (HBS) buffer and incubated with HBS and 1 mM 3-isobutyl-1-methylxanthine (IBMX) for 30 min at 37° C. To test for agonistic properties, ligands were added and incubated for 30 min at 37° C. In order to test for antagonistic properties, the cells were preincubated with the antagonists for 10 min prior to the addition the natural agonist for the expressed receptor (GLP1 for GLP1R expressing cells, GLP2 for GLP2R expressing cells, glucagon for the GcgR and secretin for the SCTR) and subsequent incubated for 20 additional min. […] The HitHunter™ cAMP XS assay (DiscoveRx) was carried out according to the manufacturer's instructions.
# [2] = target: T2, GLP1 receptor (GLP1R) (Homo sapiens, UniProt P43220); assay: cAMP assay - selectivity, antagonism at GLP1 receptor; conditions: Table 3A; COS-7 cells; agonist GLP1 at 50-80% of maximal cAMP
# T2 construct: expressed in transfected cells; host or cells: COS-7 (transient)
# T2 sequence (P43220 24-463, species assumed): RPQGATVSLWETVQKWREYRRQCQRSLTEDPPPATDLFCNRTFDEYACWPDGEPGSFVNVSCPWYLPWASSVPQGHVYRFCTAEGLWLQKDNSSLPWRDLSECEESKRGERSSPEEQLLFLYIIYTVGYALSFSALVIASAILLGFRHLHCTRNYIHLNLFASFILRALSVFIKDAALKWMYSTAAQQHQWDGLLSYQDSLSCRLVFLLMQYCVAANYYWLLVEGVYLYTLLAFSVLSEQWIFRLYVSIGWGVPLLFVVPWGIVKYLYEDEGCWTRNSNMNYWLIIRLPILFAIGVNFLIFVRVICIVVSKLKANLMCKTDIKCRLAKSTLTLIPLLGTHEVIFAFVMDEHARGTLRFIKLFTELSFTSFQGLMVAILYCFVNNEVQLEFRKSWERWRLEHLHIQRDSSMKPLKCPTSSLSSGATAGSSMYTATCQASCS
# Protocol: as §1
# [3] = target: T3, human GIP receptor (Homo sapiens, UniProt P48546); assay: cAMP agonism (CisBio cAMP Dynamic 2 HTRF assay); conditions: HEK293, read-out: cAMP agonism, % Efficacy, Table 1C, HEK-293 cells
# T3 sequence (P48546 22-466): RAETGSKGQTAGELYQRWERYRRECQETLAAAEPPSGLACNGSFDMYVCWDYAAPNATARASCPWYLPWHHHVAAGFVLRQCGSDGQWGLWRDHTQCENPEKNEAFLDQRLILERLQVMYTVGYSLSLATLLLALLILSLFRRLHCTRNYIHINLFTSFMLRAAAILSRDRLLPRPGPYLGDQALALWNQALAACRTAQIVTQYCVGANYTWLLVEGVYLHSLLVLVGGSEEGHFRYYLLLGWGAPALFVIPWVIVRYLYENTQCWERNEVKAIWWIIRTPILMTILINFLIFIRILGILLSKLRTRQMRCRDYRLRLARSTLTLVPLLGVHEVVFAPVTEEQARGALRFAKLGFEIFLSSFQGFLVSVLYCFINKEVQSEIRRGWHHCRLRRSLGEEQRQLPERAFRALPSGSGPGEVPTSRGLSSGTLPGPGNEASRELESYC
# Protocol: To test for agonistic properties at the GIP receptor, compounds were diluted and added to cells as described above and incubated for 30 min at 37° C. The resulting increase in intracellular cAMP was determined using the CisBio cAMP Dynamic 2 HTRF Assay Kit as described above.
# [4] = target: T3, human GIP receptor; assay: cAMP accumulation, agonism (DiscoveRx HitHunter cAMP XS assay); parameters: host or cells: COS-7 (transient, calcium phosphate; pCMV-Script vector); conditions: Table 1B; DiscoveRx; COS-7 cells
# In short: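 cAMP accumulation measured by HitHunter cAMP XS in COS-7 cells transiently expressing human GIP receptor, after 30 min in HBS with 1 mM IBMX at 37 °C. Antagonists preincubated 10 min before GIP giving 50-80% of maximum, then 20 min more; agonist mode used 30 min ligand exposure.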
SMILES,"GLP-2R, Antagonism [1]","GLP-1R, Antagonism, nM [2]",Emax [3] [%],"cAMP agonism, Emax [4]"
CC[C@H](C)[C@H](NC(=O)[C@H](CO)NC(=O)[C@H](Cc1ccc(O)cc1)NC(=O)[C@H](CC(=O)O)NC(=O)[C@H](CO)NC(=O)[C@@H](NC(=O)[C@H](Cc1ccccc1)NC(=O)[C@@H](NC(=O)CNC(=O)[C@@H]1CCC(=O)N1)[C@@H](C)O)[C@@H](C)CC)C(=O)N[C@@H](C)C(=O)N[C@@H](CCSC)C(=O)N[C@@H](CC(=O)O)C(=O)N[C@@H](CCCNC(=N)N)C(=O)N[C@H](C(=O)N[C@@H](CCCCNC(=O)COCCOCCNC(=O)COCCOCCNC(=O)COCCOCCNC(=O)CC[C@H](NC(=O)CCCCCCCCCCCCCCCCC(=O)O)C(=O)O)C(=O)N[C@@H](CCC(N)=O)C(=O)N[C@@H](CCC(N)=O)C(=O)N[C@@H](CC(=O)O)C(=O)N[C@@H](Cc1ccccc1)C(=O)N[C@H](C(=O)N[C@@H](CC(N)=O)C(=O)N[C@@H](Cc1c[nH]c2ccccc12)C(=O)N[C@@H](CC(C)C)C(=O)N[C@@H](CC(C)C)C(=O)N[C@@H](C)C(=O)N[C@@H](CCC(N)=O)C(=O)N[C@@H](CCCNC(=N)N)C(N)=O)C(C)C)[C@@H](C)CC [AT382] ([pGlu]GTFISDYSIAMDRIK([AEEA-AEEA-AEEA-γGlu-C18 diacid])QQDFVNWLLAQR-NH2),No antagonism,No antagonism,0,No Agonism
CC[C@H](C)[C@H](NC(=O)[C@H](CO)NC(=O)[C@H](Cc1ccc(O)cc1)NC(=O)[C@H](CC(=O)O)NC(=O)[C@H](CO)NC(=O)[C@@H](NC(=O)[C@H](Cc1ccccc1)NC(=O)[C@@H](NC(=O)CNC(=O)[C@@H](N)CO)[C@@H](C)O)[C@@H](C)CC)C(=O)N[C@@H](C)C(=O)N[C@@H](CCSC)C(=O)N[C@@H](CC(=O)O)C(=O)N[C@@H](CCCNC(=N)N)C(=O)N[C@H](C(=O)N[C@@H](CCCCNC(=O)COCCOCCNC(=O)COCCOCCNC(=O)COCCOCCNC(=O)CC[C@H](NC(=O)CCCCCCCCCCCCCCC(=O)O)C(=O)O)C(=O)N[C@@H](CCC(N)=O)C(=O)N[C@@H](CCC(N)=O)C(=O)N[C@@H](CC(=O)O)C(=O)N[C@@H](Cc1ccccc1)C(=O)N[C@H](C(=O)N[C@@H](CC(N)=O)C(=O)N[C@@H](Cc1c[nH]c2ccccc12)C(=O)N[C@@H](CC(C)C)C(=O)N[C@@H](CC(C)C)C(=O)N[C@@H](C)C(=O)N[C@@H](CCC(N)=O)C(=O)N[C@@H](CCCNC(=N)N)C(N)=O)C(C)C)[C@@H](C)CC [AT383] (H-SGTFISDYSIAMDRIK([AEEA-AEEA-AEEA-γGlu-C16 diacid])QQDFVNWLLAQR-NH2; N-terminus assumed),No antagonism,No antagonism,0,No Agonism
CC[C@H](C)[C@H](NC(=O)[C@H](CO)NC(=O)[C@H](Cc1ccc(O)cc1)NC(=O)[C@H](CC(=O)O)NC(=O)[C@H](CO)NC(=O)[C@@H](NC(=O)[C@H](Cc1ccccc1)NC(=O)[C@@H](NC(=O)CNC(=O)[C@@H](N)CO)[C@@H](C)O)[C@@H](C)CC)C(=O)N[C@@H](C)C(=O)N[C@@H](CCSC)C(=O)N[C@@H](CC(=O)O)C(=O)N[C@@H](CCCNC(=N)N)C(=O)N[C@H](C(=O)N[C@@H](CCCCNC(=O)COCCOCCNC(=O)COCCOCCNC(=O)CC[C@H](NC(=O)CCCCCCCCCCCCCCCCC(=O)O)C(=O)O)C(=O)N[C@@H](CCC(N)=O)C(=O)N[C@@H](CCC(N)=O)C(=O)N[C@@H](CC(=O)O)C(=O)N[C@@H](Cc1ccccc1)C(=O)N[C@H](C(=O)N[C@@H](CC(N)=O)C(=O)N[C@@H](Cc1c[nH]c2ccccc12)C(=O)N[C@@H](CC(C)C)C(=O)N[C@@H](CC(C)C)C(=O)N[C@@H](C)C(=O)N[C@@H](CCC(N)=O)C(=O)N[C@@H](CCCNC(=N)N)C(N)=O)C(C)C)[C@@H](C)CC [AT384] (H-SGTFISDYSIAMDRIK([AEEA-AEEA-γGlu-C18 diacid])QQDFVNWLLAQR-NH2; N-terminus assumed),No antagonism,No antagonism,0,No Agonism
CC[C@H](C)[C@H](NC(=O)[C@H](CO)NC(=O)[C@H](Cc1ccc(O)cc1)NC(=O)[C@H](CC(=O)O)NC(=O)[C@H](CO)NC(=O)[C@@H](NC(=O)[C@H](Cc1ccccc1)NC(=O)[C@@H](NC(=O)CNC(=O)[C@@H](N)CO)[C@@H](C)O)[C@@H](C)CC)C(=O)N[C@@H](C)C(=O)N[C@@H](CCSC)C(=O)N[C@@H](CC(=O)O)C(=O)N[C@@H](CCCNC(=N)N)C(=O)N[C@H](C(=O)N[C@@H](CCCCNC(=O)COCCOCCNC(=O)COCCOCCNC(=O)COCCOCCNC(=O)CC[C@H](NC(=O)CCCCCCCCCCCCCCCCC(=O)O)C(=O)O)C(=O)N[C@@H](CCC(N)=O)C(=O)N[C@@H](CCC(N)=O)C(=O)N[C@@H](CC(=O)O)C(=O)N[C@@H](Cc1ccccc1)C(=O)N[C@H](C(=O)N[C@@H](CC(N)=O)C(=O)N[C@@H](Cc1c[nH]c2ccccc12)C(=O)N[C@@H](CC(C)C)C(=O)N[C@@H](CC(C)C)C(=O)N[C@@H](C)C(=O)N[C@@H](CCC(N)=O)C(=O)N[C@@H](CCCNC(=N)N)C(N)=O)C(C)C)[C@@H](C)CC [AT385] (H-SGTFISDYSIAMDRIK([AEEA-AEEA-AEEA-γGlu-C18 diacid])QQDFVNWLLAQR-NH2; N-terminus assumed),No antagonism,No antagonism,3,No Agonism
CC[C@H](C)[C@H](NC(=O)[C@H](CO)NC(=O)[C@H](Cc1ccc(O)cc1)NC(=O)[C@H](CC(=O)O)NC(=O)[C@H](CO)NC(=O)[C@@H](NC(=O)[C@H](Cc1ccccc1)NC(=O)[C@@H](NC(=O)CNC(=O)[C@@H](N)CO)[C@@H](C)O)[C@@H](C)CC)C(=O)N[C@@H](C)C(=O)N[C@@H](CCSC)C(=O)N[C@@H](CC(=O)O)C(=O)N[C@@H](CCCNC(=N)N)C(=O)N[C@H](C(=O)N[C@@H](CCCCNC(=O)CCCCCCCCCCCCCCCCC(=O)O)C(=O)N[C@@H](CCC(N)=O)C(=O)N[C@@H](CCC(N)=O)C(=O)N[C@@H](CC(=O)O)C(=O)N[C@@H](Cc1ccccc1)C(=O)N[C@H](C(=O)N[C@@H](CC(N)=O)C(=O)N[C@@H](Cc1c[nH]c2ccccc12)C(=O)N[C@@H](CC(C)C)C(=O)N[C@@H](CC(C)C)C(=O)N[C@@H](C)C(=O)N[C@@H](CCC(N)=O)C(=O)N[C@@H](CCCNC(=N)N)C(N)=O)C(C)C)[C@@H](C)CC [AT393] (H-SGTFISDYSIAMDRIK(C18 diacid)QQDFVNWLLAQR-NH2; N-terminus assumed),No antagonism,No antagonism,6,No Agonism

# Reference: patent US12187773B2, “Modified GIP peptide analogues” (Antag Therapeutics ApS, priority 2018, dated 2025)
